Patent US20250163104A1, “MACROCYCLIC IMMUNOMODULATORS” (priority 2021, published 2025)
Where a SMILES comes first, the peptide text is derived from it. Bridges are numbered along the chain shown (N, C = ends). [ ]: non-standard residue; d: D form. The star is where a group is joined. Bip = N[C@@H](Cc1ccc(-c2ccccc2)cc1)C(=O)O; Phe(3-Me) = Cc1cccc(C[C@H](N)C(=O)O)c1; Val(3-OH) = CC(C)(O)[C@H](N)C(=O)O; mTyr = N[C@@H](Cc1cccc(O)c1)C(=O)O; Benzoyl(4-F) = O=C(c1ccc(F)cc1)*; Hyp = O=C(O)[C@@H]1C[C@@H](O)CN1; 4Pal = N[C@@H](Cc1ccncc1)C(=O)O; Cha = N[C@@H](CC1CCCCC1)C(=O)O; Carboxymethyl = O=C(O)C*; Orn = NCCC[C@H](N)C(=O)O; Dab = NCC[C@H](N)C(=O)O; Dap = NC[C@H](N)C(=O)O

biological target: T1, human PD-1 / PD-L1-Ig binding on Jurkat cell line over-expressing human PD-1 (Jurkat-PD-1) (Homo sapiens, UniProt Q15116); experiment: Jurkat-PD-1 Cell Binding High-Content Screening Assay (CBA); format: cell-based; details: Jurkat-PD-1 cells, PE-labeled PD-L1-Ig 20 nM final; read-out: Jurkat HPD1_PDL1 IC50
T1 construct: expressed in transfected cells; host or cells: Jurkat
T1 sequence (Q15116 25-288): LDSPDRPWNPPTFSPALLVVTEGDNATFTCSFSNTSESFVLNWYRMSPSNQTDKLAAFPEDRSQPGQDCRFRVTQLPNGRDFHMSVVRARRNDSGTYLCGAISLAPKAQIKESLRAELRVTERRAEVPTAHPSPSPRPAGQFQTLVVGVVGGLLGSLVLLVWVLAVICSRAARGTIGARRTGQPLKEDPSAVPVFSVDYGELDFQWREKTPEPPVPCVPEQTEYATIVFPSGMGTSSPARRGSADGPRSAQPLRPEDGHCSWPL
In short: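 Cell-bound PE-labeled PD-L1-Ig (20 nM final, 1 h) measured by high-content imaging after fixation and Hoechst 33342 counterstain. Compound was applied first for 2 h at 37° C. to Jurkat cells over-expressing human PD-1 in DMEM with 10% FCS.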

| Compound | IC50 |
| --- | --- |
| CCNC(=O)[C@H](CCN)NC(=O)[C@@H]1CSCC(=O)N[C@@H](CN)C(=O)N[C@@H](Cc2ccc(OCC(=O)O)cc2)C(=O)N[C@@H](CC(=O)O)C(=O)N[C@@H](Cc2cccc(O)c2)C(=O)N[C@@H](Cc2ccc(O)cc2)C(=O)N[C@@H](Cc2ccc(-c3ccccc3)cc2)C(=O)N[C@@H](Cc2ccc(O)cc2)C(=O)N[C@@H](CCCN)C(=O)N[C@H](CC(C)C)C(=O)N[C@@H](CCN)C(=O)N[C@@H](CC2CCCCC2)C(=O)N[C@@H](C(C)C)C(=O)N[C@@H](CCCN)C(=O)N1 [Compound 2047] ({CH2CO}-[Dap]Y(Carboxymethyl)D[mTyr]Y[Bip]Y[Orn][dL][Dab][Cha]V[Orn]C[Dab]-NHEt; thioether N-14) | 2.8 nM |
| Cc1cccc(C[C@@H]2NC(=O)[C@H](CC(=O)O)NC(=O)[C@H](Cc3ccc(OCC(=O)O)cc3)NC(=O)[C@H](CNC(=O)c3ccc(F)cc3)NC(=O)CSC[C@@H](C(N)=O)NC(=O)[C@H]([C@@H](C)O)NC(=O)[C@H](C(C)C)NC(=O)[C@H](CC3CCCCC3)NC(=O)[C@H](CCN)NC(=O)[C@@H](CC(C)C)NC(=O)[C@H](CCCN)NC(=O)[C@H](Cc3ccc(OCC(=O)O)cc3)NC(=O)[C@H](Cc3ccc(-c4ccccc4)cc3)NC(=O)[C@H](Cc3ccc(O)cc3)NC2=O)c1 [Compound 2048] ({CH2CO}-[Dap](Benzoyl(4-F))Y(Carboxymethyl)D[Phe(3-Me)]Y[Bip]Y(Carboxymethyl)[Orn][dL][Dab][Cha]VTC-NH2; thioether N-14) | 40.2 nM |
| Cc1cccc(C[C@@H]2NC(=O)[C@H](CC(=O)O)NC(=O)[C@H](Cc3ccc(OCC(=O)O)cc3)NC(=O)[C@H](CCNC(=O)c3ccc(F)cc3)NC(=O)CSC[C@@H](C(N)=O)NC(=O)[C@H]([C@@H](C)O)NC(=O)[C@H](C(C)C)NC(=O)[C@H](CC3CCCCC3)NC(=O)[C@H](CCN)NC(=O)[C@@H](CC(C)C)NC(=O)[C@H](CCCN)NC(=O)[C@H](Cc3ccc(OCC(=O)O)cc3)NC(=O)[C@H](Cc3ccc(-c4ccccc4)cc3)NC(=O)[C@H](Cc3ccc(O)cc3)NC2=O)c1 [Compound 2049] ({CH2CO}-[Dab](Benzoyl(4-F))Y(Carboxymethyl)D[Phe(3-Me)]Y[Bip]Y(Carboxymethyl)[Orn][dL][Dab][Cha]VTC-NH2; thioether N-14) | 79.3 nM |
| Cc1cccc(C[C@@H]2NC(=O)[C@H](CC(=O)O)NC(=O)[C@H](Cc3ccc(OCC(=O)O)cc3)NC(=O)[C@H](CCCNC(=N)N)NC(=O)CSC[C@@H](C(N)=O)NC(=O)[C@H]([C@@H](C)O)NC(=O)[C@H](C(C)C)NC(=O)[C@H](CC3CCCCC3)NC(=O)[C@H](CCN)NC(=O)[C@@H](CC(C)C)NC(=O)[C@H](CCCNC(=O)c3ccc(F)cc3)NC(=O)[C@H](Cc3ccc(OCC(=O)O)cc3)NC(=O)[C@H](Cc3ccc(-c4ccccc4)cc3)NC(=O)[C@H](Cc3ccc(O)cc3)NC2=O)c1 [Compound 2050] ({CH2CO}-RY(Carboxymethyl)D[Phe(3-Me)]Y[Bip]Y(Carboxymethyl)[Orn](Benzoyl(4-F))[dL][Dab][Cha]VTC-NH2; thioether N-14) | 121 nM |
| CC(=O)NCCC[C@@H]1NC(=O)[C@H](Cc2ccc(OCC(=O)O)cc2)NC(=O)[C@H](Cc2ccc(-c3ccccc3)cc2)NC(=O)[C@H](Cc2ccc(O)cc2)NC(=O)[C@H](Cc2cccc(C)c2)NC(=O)[C@H](CC(=O)O)NC(=O)[C@H](Cc2ccc(OCC(=O)O)cc2)NC(=O)[C@H](CCCNC(=N)N)NC(=O)CSC[C@@H](C(N)=O)NC(=O)[C@H]([C@@H](C)O)NC(=O)[C@H](C(C)C)NC(=O)[C@H](CC2CCCCC2)NC(=O)[C@H](CCN)NC(=O)[C@@H](CC(C)C)NC1=O [Compound 2051] ({CH2CO}-RY(Carboxymethyl)D[Phe(3-Me)]Y[Bip]Y(Carboxymethyl)[Orn](Ac)[dL][Dab][Cha]VTC-NH2; thioether N-14) | 48.5 nM |
| Cc1cccc(C[C@@H]2NC(=O)[C@H](CC(=O)O)NC(=O)[C@H](Cc3ccc(OCC(=O)O)cc3)NC(=O)[C@H](CCCNC(=N)N)NC(=O)CSC[C@@H](C(N)=O)NC(=O)[C@H]([C@@H](C)O)NC(=O)[C@H](C(C)C)NC(=O)[C@H](CC3CCCCC3)NC(=O)[C@H](CCN)NC(=O)[C@@H](CC(C)C)NC(=O)[C@H](CCCN)NC(=O)[C@H](CCCNC(=O)c3ccc(F)cc3)NC(=O)[C@H](Cc3ccc(-c4ccccc4)cc3)NC(=O)[C@H](Cc3ccc(O)cc3)NC2=O)c1 [Compound 2052] ({CH2CO}-RY(Carboxymethyl)D[Phe(3-Me)]Y[Bip][Orn](Benzoyl(4-F))[Orn][dL][Dab][Cha]VTC-NH2; thioether N-14) | 145 nM |
| Cc1cccc(C[C@@H]2NC(=O)[C@H](CC(=O)O)NC(=O)[C@H](Cc3ccc(OCC(=O)O)cc3)NC(=O)[C@H](CCCNC(=N)N)NC(=O)CSC[C@@H](C(N)=O)NC(=O)[C@H](CCCNC(=O)c3ccc(F)cc3)NC(=O)[C@H](C(C)C)NC(=O)[C@H](CC3CCCCC3)NC(=O)[C@H](CCN)NC(=O)[C@@H](CC(C)C)NC(=O)[C@H](CCCN)NC(=O)[C@H](Cc3ccc(OCC(=O)O)cc3)NC(=O)[C@H](Cc3ccc(-c4ccccc4)cc3)NC(=O)[C@H](Cc3ccc(O)cc3)NC2=O)c1 [Compound 2053] ({CH2CO}-RY(Carboxymethyl)D[Phe(3-Me)]Y[Bip]Y(Carboxymethyl)[Orn][dL][Dab][Cha]V[Orn](Benzoyl(4-F))C-NH2; thioether N-14) | 39.4 nM |

The remaining lines, values ahead:

| IC50 | Compound |
| --- | --- |
| 12.4 nM | CC(=O)NCCC[C@@H]1NC(=O)[C@H](C(C)C)NC(=O)[C@H](CC2CCCCC2)NC(=O)[C@H](CCN)NC(=O)[C@@H](CC(C)C)NC(=O)[C@H](CCCN)NC(=O)[C@H](Cc2ccc(OCC(=O)O)cc2)NC(=O)[C@H](Cc2ccc(-c3ccccc3)cc2)NC(=O)[C@H](Cc2ccc(O)cc2)NC(=O)[C@H](Cc2cccc(C)c2)NC(=O)[C@H](CC(=O)O)NC(=O)[C@H](Cc2ccc(OCC(=O)O)cc2)NC(=O)[C@H](CCCNC(=N)N)NC(=O)CSC[C@@H](C(N)=O)NC1=O [Compound 2054] ({CH2CO}-RY(Carboxymethyl)D[Phe(3-Me)]Y[Bip]Y(Carboxymethyl)[Orn][dL][Dab][Cha]V[Orn](Ac)C-NH2; thioether N-14) |
| 97.3 nM | Cc1cccc(C[C@@H]2NC(=O)[C@H](CC(=O)O)NC(=O)[C@H](Cc3ccc(OCC(=O)O)cc3)NC(=O)[C@H](CCCNC(=N)N)NC(=O)CSC[C@@H](C(N)=O)NC(=O)[C@H]([C@@H](C)O)NC(=O)[C@H](C(C)C)NC(=O)[C@H](CC3CCCCC3)NC(=O)[C@H](CCN)NC(=O)[C@@H](CC(C)C)NC(=O)[C@H](CCCN)NC(=O)[C@H](CCCN)NC(=O)[C@H](Cc3ccc(-c4ccccc4)cc3)NC(=O)[C@H](Cc3ccc(O)cc3)NC2=O)c1 [Compound 2055] ({CH2CO}-RY(Carboxymethyl)D[Phe(3-Me)]Y[Bip][Orn][Orn][dL][Dab][Cha]VTC-NH2; thioether N-14) |
| 27.5 nM | Cc1cccc(C[C@@H]2NC(=O)[C@H](CC(=O)O)NC(=O)[C@H](Cc3ccc(OCC(=O)O)cc3)NC(=O)[C@H](CCCNC(=N)N)NC(=O)CSC[C@@H](C(N)=O)NC(=O)[C@H]([C@@H](C)O)NC(=O)[C@H](C(C)C)NC(=O)[C@H](CC3CCCCC3)NC(=O)[C@H](CCN)NC(=O)[C@@H](CC(C)C)NC(=O)[C@H](CCCN)NC(=O)[C@H](Cc3ccc(OCC(=O)O)cc3)NC(=O)[C@H](Cc3ccc(-c4ccccc4)cc3)NC(=O)[C@H](Cc3ccc(O)cc3)NC2=O)c1 [Compound 2056] ({CH2CO}-RY(Carboxymethyl)D[Phe(3-Me)]Y[Bip]Y(Carboxymethyl)[Orn][dL][Dab][Cha]VTC-NH2; thioether N-14) |
| 3.6 nM | Cc1cccc(C[C@@H]2NC(=O)[C@H](CC(=O)O)NC(=O)[C@H](Cc3ccc(OCC(=O)O)cc3)NC(=O)[C@H](Cc3ccncc3)NC(=O)CSC[C@@H](C(=O)N[C@@H](CCN)C(N)=O)NC(=O)[C@H](CO)NC(=O)[C@H](C(C)(C)O)NC(=O)[C@H](CC3CCCCC3)NC(=O)[C@H](CCN)NC(=O)[C@@H](CC(C)C)NC(=O)[C@H](CCCN)NC(=O)[C@H](Cc3ccc(OCC(=O)O)cc3)NC(=O)[C@H](Cc3ccc(-c4ccccc4)cc3)NC(=O)[C@H](Cc3ccc(OCC(=O)O)cc3)NC2=O)c1 [Compound 2057] ({CH2CO}-[4Pal]Y(Carboxymethyl)D[Phe(3-Me)]Y(Carboxymethyl)[Bip]Y(Carboxymethyl)[Orn][dL][Dab][Cha][Val(3-OH)]SC[Dab]-NH2; thioether N-14) |
| 25.2 nM | Cc1cccc(C[C@@H]2NC(=O)[C@H](CC(=O)O)NC(=O)[C@H](Cc3ccc(OCC(=O)O)cc3)NC(=O)[C@H](C(C)(C)O)NC(=O)CSC[C@@H](C(=O)N[C@@H](CCN)C(N)=O)NC(=O)[C@H](CO)NC(=O)[C@H](C(C)(C)O)NC(=O)[C@H](CC3CCCCC3)NC(=O)[C@H](CCN)NC(=O)[C@@H](CC(C)C)NC(=O)[C@H](CCCN)NC(=O)[C@H](Cc3ccc(OCC(=O)O)cc3)NC(=O)[C@H](Cc3ccc(-c4ccccc4)cc3)NC(=O)[C@H](Cc3ccc(OCC(=O)O)cc3)NC2=O)c1 [Compound 2058] ({CH2CO}-[Val(3-OH)]Y(Carboxymethyl)D[Phe(3-Me)]Y(Carboxymethyl)[Bip]Y(Carboxymethyl)[Orn][dL][Dab][Cha][Val(3-OH)]SC[Dab]-NH2; thioether N-14) |
| 356 nM | Cc1cccc(C[C@@H]2NC(=O)[C@H](CC(=O)O)NC(=O)[C@H](Cc3ccc(OCC(=O)O)cc3)NC(=O)[C@@H]3C[C@@H](O)CN3C(=O)CSC[C@@H](C(=O)N[C@@H](CCN)C(N)=O)NC(=O)[C@H](CO)NC(=O)[C@H](C(C)(C)O)NC(=O)[C@H](CC3CCCCC3)NC(=O)[C@H](CCN)NC(=O)[C@@H](CC(C)C)NC(=O)[C@H](CCCN)NC(=O)[C@H](Cc3ccc(OCC(=O)O)cc3)NC(=O)[C@H](Cc3ccc(-c4ccccc4)cc3)NC(=O)[C@H](Cc3ccc(OCC(=O)O)cc3)NC2=O)c1 [Compound 2059] ({CH2CO}-[Hyp]Y(Carboxymethyl)D[Phe(3-Me)]Y(Carboxymethyl)[Bip]Y(Carboxymethyl)[Orn][dL][Dab][Cha][Val(3-OH)]SC[Dab]-NH2; thioether N-14) |
